Laboratory results from publication PMC5570423, “Structural characterisation of TNRC6A nuclear localisation signal in complex with importin-alpha” (PLoS ONE, 2017).
Where no end group is shown, it is not given here.

Key:
[1] = tested on: nuclear accumulation of a fluorescent reporter; conditions: template SSGA####AG, Lys/Arg combinations predicted to bind at P2-P5; cited from earlier work
Experimental: A detailed mutational analysis of a template monopartite NLS sequence has been reported, where all possible 16 Lys and/or Arg combinations (SSGA####AG, where # represents either Lys or Arg) predicted to bind at the P2-P5 pockets, were tested for their nuclear import activity.

[2] = tested on: mImpα1ΔIBB; assay: In vitro GST pull-down with mouse Impα1ΔIBB; type: binding; conditions: 100 μg GST-cNLS, 250 μg Impα, glutathione resin, 4°C 1 hr, 20 mM Tris pH7.5, […] NaCl, 1 mM DTT; SDS-PAGE
Experimental: (§1) Glutathione resin (Pierce) was incubated with 100 μg of purified GST-cNLS or GST, and 250 μg of ImpA or 500 μg of ImpB at 4°C for 1 hr. Unbound protein was removed by washing beads 5 times in 500 μL binding buffer, and the bound proteins were eluted in binding buffer supplemented with 10 mM glutathione. The samples were analysed using SDS-PAGE, input lanes correspond to 1% of incubated samples and pull-down lanes correspond to 8% of eluted protein.

[3] = tested on: mouse Impβ; assay: In vitro GST pull-down with mouse Impβ; type: binding; conditions: GST-NLS with His-tagged mouse Impβ (500 μg), 4°C 1 hr; S1 Fig
Experimental: as §1
(§2) Pull-downs with GST-NLS or GST-mImpα1 full-length with His-tagged mouse and human Impβ. GST and mImpα1 served as the negative and positive controls, respectively. (EPS) Click here for additional data file.

[4] = tested on: hImpα1ΔIBB; assay: In vitro GST pull-down with human Impα1ΔIBB; type: binding; conditions: 100 μg GST-cNLS, 250 μg Impα, glutathione resin, 4°C 1 hr; SDS-PAGE
Experimental: as §1

[5] = tested on: human Impβ; assay: In vitro GST pull-down with human Impβ; type: binding; conditions: GST-NLS with His-tagged human Impβ (500 μg), 4°C 1 hr; S1 Fig
Experimental: as §1, §2

[6] = tested on: HeLa cells; conditions: region comprising residues 1178–1187 of the human protein; cited from earlier work
Excerpt: hTNRC6A cNLS (^1179[…]^1187; numbering according to isoform 1 and corresponds to ^926[…]^934 in isoform 2; Fig 1A) is located between the Ago-binding and UBA regions of the protein [35]. This motif is strictly conserved between mouse and humans (Fig 1B), is present in bats and hedgehogs, but appears to be absent in fish and insects.

SSGAKRRRAG
nuclear accumulation of a fluorescent reporter [1]: Complete nuclear accumulation

P2 mutant: GST-TNRC6A cNLS with mTNRC6A Lys1167 mutated to Ala (SGKARRRER; also: fused to GST (GST not in chain), ends not given here)
binding to mImpα1ΔIBB in GST pull-down [2]: completely abolished binding

NLS mutant: GST-TNRC6A cNLS with the four arginine residues substituted to Ala, as previously described (SGKKAAAEA; also: fused to GST (GST not in chain), ends not given here)
binding to mImpα1ΔIBB in GST pull-down [2]: binding was disrupted

SGKKRRRER [GST-TNRC6A cNLS, GST fusion of TNRC6A nuclear localisation signal, residues 1164–1172 of mouse TNRC6A (1179–1187 of human)]
pull-down of mouse Impβ [3]: not sufficient to pull-down | binding to hImpα1ΔIBB in GST pull-down [4]: sufficient to interact | binding to mImpα1ΔIBB in GST pull-down [2]: sufficient to interact | pull-down of human Impβ [5]: not sufficient to pull-down

SGKKRRRER [hTNRC6A cNLS, human TNRC6A cNLS, residues 1179–1187 of isoform 1; strictly conserved with mouse; tested earlier on a GFP reporter]
nuclear localisation of a GFP reporter [6]: sufficient to induce the nuclear localisation
